The test system of experiment [1] is PBMC from T. gondii-seropositive HLA-A03 individuals. Nature of the experiment: IFN-γ ELISpot assay with human PBMC. It is filed as cell-based. Particulars: for IFN-γ-secreting spot formation: PBMC from Toxoplasma seropositive HLA-A03 individuals, compared to an irrelevant HLA-A*1101-restricted peptide. The procedure: To determine which of these peptides would be recognized in the context of Toxoplasma infection, peripheral blood mononuclear cells (PBMC) from T. gondii-seropositive HLA-A03 individuals were tested for response to these peptides in pools or individually by using an IFN-γ ELISpot assay. Candidate peptides were considered immunogenic if they induced IFN-γ-secreting spot formation that was significant compared to an irrelevant HLA-A*1101-restricted peptide.
The epitopes were linked together with N/K alanines or GPGPG (SEQ ID NO: 23) as linker, named as LO and AZ, respectively (FIG. 3A-B). […] Immunogenicity of the two proteins compared to the pool of the 5 individual A11-restricted CD8^+ T cell epitope peptides was tested in vitro.
PBMC were obtained from individuals seropositive to T. gondii, and their HLA haplotype was determined.

In experiment [2] the target is T1, TLR5 (Homo sapiens, UniProt O60602).
T1 construct: expressed in transfected cells; host or cells: HEK 293 (stably co-transfected with TLR5 and NF-kB-driven SEAP reporter)
It is filed as cell-based. Particulars: for TLR5 activity (SEAP expression): 0.01-1000 ng/ml, 24 hours.

Experiment [3] can be described thus: Immune response to Tox-All in HLA transgenic mice. More on the design: species or system HLA A2 and HLA A11 mice. Particulars: mouse, in vivo. The text has this:
The schematic diagrams of SAPN A11 (SEQ ID NO:27) in FIG. 17A 12e is similar to the schematic diagram of the more complex SAPN Tox-All (FIG. 17B). (FIG. 12f). […] Tox-All contains CD8 T cell eliciting epitopes by binding to HLA All, A2, and B7, PADRE a universal CD4 T cell eliciting epitope, protein domains that can elicit antibody (data not shown). Tox-All has the same scaffold flagellin that is shown for SAPN A11. […] Additional CD8 peptides that bind to other HLA molecules to broaden population coverage and CD4 peptides can be added in this complex SAPN. Additional proteins that elicit B cells can also be included in the SAPN. This allows us to tailor an immune response for each component of the immune system we wish to stimulate. The methods and approaches are those described for the A11 SAPN.

Read-outs that look alike come from different tables or passages of the source.

T1 sequence (O60602 21-858): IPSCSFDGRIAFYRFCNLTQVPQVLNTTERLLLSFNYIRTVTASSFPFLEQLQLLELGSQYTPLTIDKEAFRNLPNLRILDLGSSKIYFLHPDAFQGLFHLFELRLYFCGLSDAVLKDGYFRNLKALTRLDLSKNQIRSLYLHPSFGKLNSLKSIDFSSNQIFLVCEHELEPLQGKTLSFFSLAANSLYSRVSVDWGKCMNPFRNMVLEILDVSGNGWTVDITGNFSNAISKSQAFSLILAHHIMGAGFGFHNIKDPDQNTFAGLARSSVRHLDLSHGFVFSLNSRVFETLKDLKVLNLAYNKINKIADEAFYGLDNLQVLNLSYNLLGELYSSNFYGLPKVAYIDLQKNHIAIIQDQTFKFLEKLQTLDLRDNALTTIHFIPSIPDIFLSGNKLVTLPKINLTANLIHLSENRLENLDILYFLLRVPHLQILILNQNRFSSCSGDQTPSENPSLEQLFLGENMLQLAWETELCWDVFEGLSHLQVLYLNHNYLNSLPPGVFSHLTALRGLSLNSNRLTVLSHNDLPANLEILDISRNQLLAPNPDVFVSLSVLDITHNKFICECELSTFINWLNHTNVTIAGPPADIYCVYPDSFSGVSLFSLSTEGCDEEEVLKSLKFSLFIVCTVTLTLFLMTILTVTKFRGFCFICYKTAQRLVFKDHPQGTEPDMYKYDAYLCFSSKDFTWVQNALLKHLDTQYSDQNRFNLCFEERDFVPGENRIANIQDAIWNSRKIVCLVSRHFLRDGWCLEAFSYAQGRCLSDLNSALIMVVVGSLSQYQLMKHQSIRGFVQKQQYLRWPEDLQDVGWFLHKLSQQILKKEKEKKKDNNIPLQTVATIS

With AVVSLLRLLK [GRA589-98], in experiment [1], the IFN-γ-secreting spot formation result is on record as “stimulated significant response”.
For “Concanavalin A [Con A, reference compound]”, in experiment [1] (PBMC of 3 seropositive and 3 seronegative HLA-A03 individuals), the “IFN-γ ELISpot response, seropositive versus seronegative donors” value is “response of PBMC from both seronegative and seropositive donors”.
Consider SSAYVFSVK [SRS52A250-258], for which the IFN-γ-secreting spot formation entry in experiment [1] was “stimulated significant response”.
As for STFWPCLLR [SAG2C13-21], the IFN-γ-secreting spot formation result in experiment [1] is given as “stimulated significant response”.

B1: CD8-SAPN: self-assembling protein nanoparticle with five CD8+ epitopes and PADRE inserted into flagellin (protein)
chain: MGDKHHHHHHHHHHKDGSDKGSWEEWNARWDEWENDWNDWREDWQAWRDDWARWRATWMGGRLLSRLERLERRNEELRRLLQLIRHENRMVLQFVRALSMQNAELERRLEELARGMAQVINTNSLSLLTQNNLNRSQSALGTAIERLSSGLRINSARDDAAGQAIANRFTANIRGLTQASRNANDGISIAQTTEGALNEINNNLQRVRELAVQSANSTNSQSDLDSIQAEITQRLNEIDRVSGQTQFNGVRVLAQDNTLTIQVGANDGETIDIDLRQINSQTLGLDQLNVQQEYESDDAVVSLLRLLKNAMLTAFFLRNAAAKSFKDILPKKAAASSAYVFSVKKAAAKFVAAWTLKAAAKSTFWPCLLRDSDSDTENPLQRIDAALAQVDALRSDLGAVQNRFNSAITNLGNTVNNLSEARSRIEDSDYATEVSNMSRAQILQQAGTSVLAQANQVPQNVLSLLR
modifications: (1)..(14) optionally absent
For the molecule B1, the “TLR5 activity (SEAP expression)” value is recorded as “significantly enhanced” in experiment [2] and “good stimulation” in experiment [2] (listed as SAPN).

B2: Tox-All: SAPN with HLA A11, A2 and B7 CD8 epitopes, PADRE, antibody-eliciting domains and flagellin (protein)
chain: MGDDHHHHHHHHHHWFMGVLVNSLQDITMGSLFFVQDFMIVSISLVQDGLAAAVVAVQDLPQFATAATRDSPASGRYIQQMLDQRCQEIAAELCQSGLRKMCVPSSRIVARNAVGITHQNTLQWRCFDTASLLESNQENNGVNCVDDCGHTIPCPGGVHRQNSNHATRHEILSKLVEEGVQRFCSPYQASANKYCNDKFPGTIARRSKGFGNNVEVAWRCYEKASLLYSVYAECASNCGTTWYCPGGRRGTSTELDKRHYTEEEGIRQAIGSVDSPCSEVEVCLPKDENPPLCLDESGQISRGSWEEWNARWDEWENDWNDWREDWQAWRDDWARWRATWMGGRLLSRLERLERRNEELRRLLQLIRHENRMVLQFVRALSMQNAELERRLEELARGMAQVINTNSLSLLTQNNLNRSQSALGTAIERLSSGLRINSARDDAAGQAIANRFTANIRGLTQASRNANDGISIAQTTEGALNEINNNLQRVRELAVQSANSTNSQSDLDSIQAEITQRLNEIDRVSGQTQFNGVRVLAQDNTLTIQVGANDGETIDIDLRQINSQTLGLDQLNVQQEYESDDAVVSLLRLLKNAMLTAFFLRNAAAKSFKDILPKKAAASSAYVFSVKKAAAKFVAAWTLKAAAKSTFWPCLLRDSDSDTENPLQRIDAALAQVDALRSDLGAVQNRFNSAITNLGNTVNNLSEARSRIEDSDYATEVSNMSRAQILQQAGTSVLAQANQVPQNVLSLLR
modifications: (1)..(14) optionally absent
For B2, in experiment [2] (data not shown), the TLR5 stimulation result is “stimulates TLR5”. In experiment [3], the immune response entry is listed as “stimulates an immune response”.

The values above are taken from patent US11969465B2, “Toxoplasma gondii vaccines and their use” (Alpha-O Peptides AG, priority 2016, dated 2024).
